Source: patent publication US7253212B2, “Retinol derivative and cosmetic composition comprising the same” (Coreana Cosmetics Co., Ltd., priority 2002, dated 2007)

What was measured:
tyrosinase = experiment: Inhibitory effect on tyrosinase activity; format: biochemical
Procedure: A tyrosinase used herein was purchased from Sigma (U.S.A.). Tyrosine as substrate was used as a solution (0.1 mg/ml) dissolved in 0.05 M sodium phosphate buffer (pH 6.8).
0.5 ml of tyrosine solution was placed in a test tube and 0.5 ml of sample solution to be evaluated was added. The test tube was allowed to stand in incubator for 10 min. at 37° C. and then 0.5 ml of tyrosinase (200 U/ml) was added. The reaction was carried out for 10 min at 37° C. As a control group, 0.5 ml of buffer solution was added instead of the sample to be evaluated. The reaction was quenched by placing the test tube on ice and the absorbance of the resultant was measured at 475 nm with spectrophotometer. The inhibitory effect on tyrosinase activity was determined by the equation: inhibition rate on tyrosinase activity (%)=100−{(absorbance of sample/absorbance of control)×100}

[1] = Scavenging effect on free radical (DPPH); conditions: 30 min, absorbance 520 nm
Procedure: Evaluation of scavenging effect on free radical was performed using DPPH (1,1-diphenyl-2-picryl-hydrazyl, Sigma-Aldrich). 100 μl of each of the substances (the derivative of this invention, retinol and ascorbic acid) diluted to a suitable concentration and 100 μl of 400 μM DPPH solution were consequently added to a 96-well microplate and agitation was performed, followed by reaction for 30 min. at room temperature. Then, absorbance at 520 nm was measured using spectrophotometer. Control contains 100 μl of ethanol in place of the substance to be tested. The scavenging effect on free radical was calculated as following formula: scavenging effect on free radical (%)=100−{(absorbance of sample solution/absorbance of control)×100}

Human normal fibroblasts = experiment: Effect on collagen biosynthesis (procollagen type C-peptide kit); format: cell-based; conditions: 48 hours treatment
Procedure: Human normal fibroblasts (ATCC) were inoculated (2×10^4 cells/well) on 96-well microplate containing DMEM supplemented with FBS and incubated for 24 hours at 37° C. After incubation, the medium in microplate was replaced with fresh DMEM without serum comprising the derivative of this invention, retinol or ascorbic acid and then additional incubation for 48 hours was carried out. Control was not treated with any of the compounds described above. Following incubation, each well was rinsed, fresh DMEM without serum was supplied and then additional incubation for 24 hours was performed. Then, procollagen type C-peptide obtained from the supernatant of each well was measured using a kit purchased from Takara Co. (Japan) and the measured values were converted to ng/2×10^4 cells, which indicate the amount of collagen newly generated.

Structure (SMILES)	Inhibition rate on tyrosinase activity (%) (tyrosinase; sample conc. 10 μg/ml)	Inhibition rate on tyrosinase activity (%) (tyrosinase; sample conc. 20 μg/ml)	Inhibition rate on tyrosinase activity (%) (tyrosinase; sample conc. 50 μg/ml)	Inhibition rate on tyrosinase activity (%) (tyrosinase; sample conc. 100 μg/ml)	Inhibition rate on tyrosinase activity (%) (tyrosinase; sample conc. 200 μg/ml)	Inhibition rate on tyrosinase activity (%) (tyrosinase; sample conc. 500 μg/ml)	Scavenging effect on free radical (%) ([1]; concentration 0.5 mM)	Scavenging effect on free radical (%) ([1]; concentration 1 mM)	Amount of Collagen Newly Generated (Human normal fibroblasts; addition amount 50 μg) [ng/2 × 10^4 cells]	Amount of Collagen Newly Generated (Human normal fibroblasts; addition amount 100 μg) [ng/2 × 10^4 cells]	Amount of Collagen Newly Generated (Human normal fibroblasts; addition amount 200 μg) [ng/2 × 10^4 cells]
CC1=C(/C=C/C(C)=C/C=C/C(C)=C/COC(=O)COC2=C(O)C(=O)OC2C(O)CO)C(C)(C)CCC1 (stereo not drawn) [Derivative of this invention]	8.1	10.7	13.8	32.9	47.1	78.8	95.7	96.4	215	290	349
O=C1O[C@H]([C@@H](O)CO)C(O)=C1O [L-ascorbic acid]	5.1	9.8	13.2	22.5	34.8	62.4	91.2	91.9	198	267	314
CC1=C(/C=C/C(C)=C/C=C/C(C)=C/CO)C(C)(C)CCC1 [Retinol]	0.6	1.1	3.2	3.9	5.6	9.2	0.4	1.6	174	233	286
